In patent US20230391727A1, “ANALOGUES OF PENTAMIDINE AND METHODS FOR TREATING INFECTIONS” (Auransa Inc., priority 2020, published 2023):
Values after ≈ are worked out from the molar mass of the structure shown.

What was measured:
Type in all cases: cell-based
[1] = test system: Klebsiella pneumoniae (NCTC 13438); experiment: Checkerboard/MIC assay with rifampicin
Description: (§1) The 17 test strains/isolates were: (1) Serratia marcescens (ATCC 13880); (2) Salmonella typhimurium (ATCC 13311); (3) Salmonella choleraesuis (ATCC 10708); (4) Acinetobacter baumannii (ATCC BAA-1605); (5) A. baumannii (ATCC 17978); (6) A. baumannii (FDA-CDC AR-BANK#0088); (7) Citrobacter freundii (ATCC 8090); (8) Pseudomonas aeruginosa (BCCM 27647); (9) P. aeruginosa (BCCM 27648); (10) Escherichia coli (ATCC 25922); (11) E. coli (ATCC 10536); (12) Stenotrophomonas maltophilia (ATCC 13637); (13) Enterobacter cloacae (ATCC BAA-1143); (14) E. cloacae (ATCC 13047); (15) E. aerogenes (ATCC 13048); (16) Klebsiella pneumoniae (NCTC 13438); and (17) Klebsiella pneumoniae (FDA-CDC AR-BANK#0160). These bacterial strains were obtained from the American Type Culture Collection (ATCC, Rockville, MD, USA); Belgian Coordinated Collections of Microorganisms; The Culture Collections of Public Health England, UK; and FDA-CDC anticimrobial Resistance Isolate Bank, USA, and cryopreserved as single-use frozen working stock cultures which were stored at −80° C.
(§2) The 17 test strains were grown on nutrient agar or tryptic soy agar (TSA) medium as below. Colonies were suspended in phosphate buffered saline (PBS) pH 7.4. The absorbance of the bacterial suspension was measured with a spectrophotometer at OD620nm, and then the suspension was adjusted to 1-2×10^8 CFU/mL in PBS. The adjusted suspension was further diluted 1:500 in cation-adjusted Mueller-Hinton Broth. Each well contained approximately 5×10^5 CFU/mL. […] The testing inoculum was prepared within minutes before adding to wells of the test plate.
(§3) Compound 3 was tested in 8 points by two-fold serial titrations from 100 to 0.78 μg/mL. […] Assay plates were incubated and MIC endpoints were read as complete inhibition of visual growth. The checkerboard combination analysis was performed following the MIC testing protocol to identify potential synergistic, indifferent or antagonistic interactions. The analysis also included each test substance alone at the same concentration ranges.
(§4) FIC (Fraction Inhibitory Concentration) and FIC Index (FICI) values for each test condition and the average of FICI values of all pairwise combinations were calculated to determine if synergy or antagonism existed between the two substances. The FIC index was determined by calculating the sum of the ratios of MICs (minimum inhibitory concentrations) for both substances. […] Synergy is defined as the FICI (Σ)≤0.5; additivity or indifference are defined as the FICI (Σ)>0.5 to ≤4; antagonism is defined as the FICI (Σ)>4. The two fold of highest test article concentration was used for FIC value calculations in the circumstances where MIC values were greater than the highest test article concentration.

[2] = test system: Escherichia coli (ATCC 25922); experiment: Checkerboard/MIC assay with rifampicin
Description: as §1, §2, §3, §4

[3] = test system: Staphylococcus aureus BAA-1556 (MRSA); experiment: MIC assay against gram positive and antibiotic-resistant S. aureus; details: Staphylococcus aureus BAA-1556, MRSA; read-out: MIC
Procedure: (§5) The MICs of vancomycin and linezolid were determined as quality controls and the MIC values of each strain met the acceptance criteria based on PDS historical reference data.
(§6) The direct colony suspension method was used to prepare inoculated broth. Isolated colonies were taken from an 18-24 h culture plate. Optical density measurements (OD620 nm) were used to estimate the bacterial density. The test article, compound 3, and reference control stock solutions were prepared in 100% DMSO as 50× stock solutions. The 50× stock solutions were diluted by 2-fold serial titrations with 100% DMSO for a total of 11 concentrations. A 4 μL aliquot of each dilution was added to 196 μL of cation-adjusted Mueller Hinton Broth II medium seeded with the organism in wells of a 96 well plate. The final vehicle concentration was two percent (2%) in all assay wells. The final bacterial count was 2 to 8×10^5 CFU/mL. The final compound 3 concentration range was 16 to 0.016 μg/mL. Each test substance dilution was evaluated in duplicate on one test occasion. Vehicle-control and reference controls were used as blank and positive controls, respectively. Plates were incubated at 35-37° C. for 18 h. The test plates were visually examined and each well was visually scored for growth or complete inhibition of growth. The MIC value was recorded.

[4] = test system: Staphylococcus aureus ATCC 33591 (MRSA); experiment: as above; details: Staphylococcus aureus ATCC 33591, MRSA; read-out: MIC
Procedure: as §5, §6

[5] = test system: Staphylococcus aureus VRS-2 (VRSA); experiment: as above; details: Staphylococcus aureus VRS-2, VRSA; read-out: MIC
Procedure: as §5, §6

[6] = test system: Staphylococcus aureus ATCC 19636; experiment: as above; details: ATCC19636; Staphylococcus aureus ATCC 19636; read-out: MIC
Procedure: as §5, §6

[7] = compound 3 in combination with rifampicin

For `N=C(N)c1ccc(CC[C@H]2CCC[C@@H](CCc3ccc(C(=N)N)cc3)C2)cc1` [Compound 3, 4,4′-(2,2′-((1R,3S)-cyclohexane-1,3-diyl)bis(ethane-2,1-diyl))dibenzimidamide], the MIC ([1]; NCTC13438, substance alone) was 50 µg/mL, the “Combination Result” value [1, 7] was “synergy (Synergy is defined as the FICI (Σ)≤0.5)” and the “FICI (Average)” value [1, 7] was 0.22. The MIC ([2]; ATCC25922, substance alone) was 6.25 µg/mL, the “Combination Result” value [2, 7] was “additivity/” and the “FICI (Average)” value [2, 7] was 0.52. For the same molecule, the MIC [3] was 0.25 µg/mL (≈ 0.664 µM), the MIC [4] was 0.125 µg/mL (≈ 0.332 µM) and the MIC [5] was 0.25 µg/mL (≈ 0.664 µM). It also gave an MIC [6] of 0.125 µg/mL (≈ 0.332 µM).
